pIC50: −log10 of the molar value.
Molecular target: T1, ligand binding domain of human RORγ (A262-S507) (Homo sapiens, UniProt P51449)
T1 construct: made in house; host or cells: E. coli
T1 sequence (P51449 262-507): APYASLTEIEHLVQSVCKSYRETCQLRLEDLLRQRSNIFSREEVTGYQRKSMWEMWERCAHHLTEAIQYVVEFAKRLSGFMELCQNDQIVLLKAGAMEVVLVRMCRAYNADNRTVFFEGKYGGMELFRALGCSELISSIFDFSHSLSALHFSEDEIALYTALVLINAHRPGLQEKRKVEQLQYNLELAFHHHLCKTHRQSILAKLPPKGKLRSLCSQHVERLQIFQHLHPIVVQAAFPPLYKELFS
Experiment: General RORγ SPA binding assay (competition with [3H]25-hydroxycholesterol)
Conditions: RORγ SPA binding assay, inhibition of [3H]25-hydroxycholesterol binding; read-out: IC50
Protocol: Example 2 General RORγ SPA Binding Assay
The binding of potential ligands to RORγ is measured by competition with [^3H]25-hydroxycholesterol using a scintillation proximity assay (SPA) binding assay. The ligand binding domain of human RORγ (A262-S507) with an N-terminal His tag is expressed in E. coli and purified using nickel affinity chromotography. 50 nM RORγ (A262-S507) is incubated with test compound at varying concentrations for 15 min at room temperature in PBS buffer containing 0.5% fatty acid free BSA. […] of [^3H]25-hydroxycholesterol is then added, and the reaction is incubated for 15 min. 4 mg/mL of Ysi Copper HIS-TAG SPA Beads (Perkin Elmer) are added, and the mixture is incubated for 30 min. The reaction is read on a MicroBeta Trilux scintillation plate reader (Perkin Elmer). IC50 values are determined from the percentage inhibition of [^3H]25-hydroxycholesterol binding.

| pIC50 | Compound |
| --- | --- |
| 6.80 | Cc1ncc(C(=O)NCCOc2ccccc2)c(C2CCN(C(=O)Cc3c(F)cccc3F)CC2)n1 [Compound A20, 4-(1-(2-(2,6-difluorophenyl)acetyl)piperidin-4-yl)-2-methyl-N-(2-phenoxyethyl)pyrimidine-5-carboxamide] |
| 6.68 | O=C(NCc1ccc(Cl)c(Cl)c1)c1cnc(C(F)(F)F)nc1C1CCN(C(=O)Cc2c(F)cccc2F)CC1 [Compound A21, N-(3,4-dichlorobenzyl)-4-(1-(2-(2,6-difluorophenyl)acetyl)piperidin-4-yl)-2-(trifluoromethyl)pyrimidine-5-carboxamide] |
| 6.63 | Cc1cc(C)cc(CNC(=O)c2cnc(C)nc2C2CCN(C(=O)Cc3cccc(F)c3)CC2)c1 [Compound A22, N-(3,5-dimethylbenzyl)-4-(1-(2-(3-fluorophenyl)acetyl)piperidin-4-yl)-2-methylpyrimidine-5-carboxamide] |
| 6.60 | Cc1cc(C)cc(CNC(=O)c2cnc(C)nc2C2CCN(C(=O)c3ccccc3F)CC2)c1 [Compound A23, N-(3,5-dimethylbenzyl)-4-(1-(2-fluorobenzoyl)piperidin-4-yl)-2-methylpyrimidine-5-carboxamide] |
| 6.67 | Cc1cc(C)cc(CNC(=O)c2cnc(C)nc2C2CCN(C(=O)c3ccccc3Cl)CC2)c1 [Compound A24, 4-(1-(2-chlorobenzoyl)piperidin-4-yl)-N-(3,5-dimethylbenzyl)-2-methylpyrimidine-5-carboxamide] |
| 6.57 | Cc1cc(C)cc(CNC(=O)c2cnc(C)nc2C2CCN(C(=O)Cc3ccccc3)CC2)c1 [Compound A25, N-(3,5-dimethylbenzyl)-2-methyl-4-(1-(2-phenylacetyl)piperidin-4-yl) pyrimidine-5-carboxamide] |
| 6.35 | Cc1cc(C)cc(CNC(=O)c2cnc(C)nc2C2CCN(C(=O)[C@@H](C)c3ccccc3)CC2)c1 [Compound A26, (S)-N-(3,5-dimethylbenzyl)-2-methyl-4-(1-(2-phenylpropanoyl)piperidin-4-yl)pyrimidine-5-carboxamide] |
| 6.14 | Cc1cc(C)cc(CNC(=O)c2cnc(C)nc2C2CCN(C(=O)Cc3cc(F)cc(F)c3)CC2)c1 [Compound A27, 4-(1-(2-(3,5-difluorophenyl)acetyl)piperidin-4-yl)-N-(3,5-dimethylbenzyl)-2-methylpyrimidine-5-carboxamide] |
| 5.99 | CC(C)c1ncc(C(=O)NCc2ccc(Cl)c(Cl)c2)c(C2CCN(C(=O)Cc3c(F)cccc3F)CC2)n1 [Compound A28, N-(3,4-dichlorobenzyl)-4-(1-(2-(2,6-difluorophenyl)acetyl)piperidin-4-yl)-2-isopropylpyrimidine-5-carboxamide] |
| 5.96 | Cc1cc(C)cc(CNC(=O)c2cnc(C)nc2C2CCN(C(=O)Cc3ccc(F)cc3)CC2)c1 [Compound A29, N-(3,5-dimethylbenzyl)-4-(1-(2-(4-fluorophenyl)acetyl)piperidin-4-yl)-2-methylpyrimidine-5-carboxamide] |
| 5.84 | Cc1cc(C)cc(CNC(=O)c2cnc(C)nc2C2CCN(C(=O)Cc3cccc(C)c3)CC2)c1 [Compound A30, N-(3,5-dimethylbenzyl)-2-methyl-4-(1-(2-(m-tolyl)acetyl)piperidin-4-yl) pyrimidine-5-carboxamide] |
| 5.79 | Cc1cc(C)cc(CNC(=O)c2cnc(C)nc2C2CCN(C(=O)C3(c4ccccc4F)CCCC3)CC2)c1 [Compound A31] |
| 5.77 | Cc1cc(C)cc(CNC(=O)c2cnc(C)nc2C2CCN(C(=O)C3(c4ccccc4)CC3)CC2)c1 [Compound A32, N-(3,5-dimethylbenzyl)-2-methyl-4-(1-(1-phenylcyclopropanecarbonyl)piperidin-4-yl)pyrimidine-5-carboxamide] |
| 5.71 | Cc1cc(C)cc(CNC(=O)c2cnc(C)nc2C2CCN(C(=O)c3ncccc3Cl)CC2)c1 [Compound A33, 4-(1-(3-chloropicolinoyl)piperidin-4-yl)-N-(3,5-dimethylbenzyl)-2-methylpyrimidine-5-carboxamide] |
| 5.57 | Cc1cc(C)cc(CNC(=O)c2cnc(C)nc2C2CCN(C(=O)Cc3ccc(F)c(F)c3)CC2)c1 [Compound A34, 4-(1-(2-(3,4-difluorophenyl)acetyl)piperidin-4-yl)-N-(3,5-dimethylbenzyl)-2-methylpyrimidine-5-carboxamide] |
| 5.53 | Cc1cc(C)cc(CNC(=O)c2cnc(C)nc2C2CCN(C(=O)C(C)(C)c3ccccc3)CC2)c1 [Compound A35, N-(3,5-dimethylbenzyl)-2-methyl-4-(1-(2-methyl-2-phenylpropanoyl)piperidin-4-yl)pyrimidine-5-carboxamide] |
| 5.48 | CC(C)c1ncc(C(=O)NCc2ccc(Cl)c(Cl)c2)c(C2CCN(C(=O)Cc3ccccc3F)CC2)n1 [Compound A36, N-(3,4-dichlorobenzyl)-4-(1-(2-(2-fluorophenyl)acetyl)piperidin-4-yl)-2-isopropylpyrimidine-5-carboxamide] |
| 5.38 | O=C(NCc1ccc(Cl)c(Cl)c1)c1cnc(-c2ccccc2)nc1C1CCN(C(=O)Cc2c(F)cccc2F)CC1 [Compound A37, N-(3,4-dichlorobenzyl)-4-(1-(2-(2,6-difluorophenyl)acetyl)piperidin-4-yl)-2-phenylpyrimidine-5-carboxamide] |
| 5.28 | Cc1cc(C)cc(CNC(=O)c2cnc(C)nc2C2CCN(C(=O)Cc3ccccn3)CC2)c1 [Compound A38, N-(3,5-dimethylbenzyl)-2-methyl-4-(1-(2-(pyridin-2-yl)acetyl)piperidin-4-yl)pyrimidine-5-carboxamide] |
| 5.26 | COc1cccc(CC(=O)N2CCC(c3nc(C)ncc3C(=O)NCc3cc(C)cc(C)c3)CC2)c1 [Compound A39, N-(3,5-dimethylbenzyl)-4-(1-(2-(3-methoxyphenyl)acetyl)piperidin-4-yl)-2-methylpyrimidine-5-carboxamide] |
| 8.24 | Cc1ncc(C(=O)NCc2cccc(Cl)c2)c(C2CCN(C(=O)Cc3c(F)cccc3F)CC2)n1 [Compound A40, N-(3-chlorobenzyl)-4-(1-(2-(2,6-difluorophenyl)acetyl)piperidin-4-yl)-2-methylpyrimidine-5-carboxamide] |
| 8.32 | Cc1ncc(C(=O)NCc2cc(F)cc(Cl)c2)c(C2CCN(C(=O)Cc3c(F)cccc3F)CC2)n1 [Compound A41, N-(3-chloro-5-fluorobenzyl)-4-(1-(2-(2,6-difluorophenyl)acetyl)piperidin-4-yl)-2-methylpyrimidine-5-carboxamide] |
| 8.29 | Cc1ncc(C(=O)NCc2cc(Cl)ccc2F)c(C2CCN(C(=O)Cc3c(F)cccc3F)CC2)n1 [Compound A42, N-(5-chloro-2-fluorobenzyl)-4-(1-(2-(2,6-difluorophenyl)acetyl)piperidin-4-yl)-2-methylpyrimidine-5-carboxamide] |
| 8.27 | Cc1cc(C)cc(CNC(=O)c2cnc(C3CC3)nc2C2CCN(C(=O)Cc3c(F)cccc3F)CC2)c1 [Compound A43, 2-cyclopropyl-4-(1-(2-(2,6-difluorophenyl)acetyl)piperidin-4-yl)-N-(3,5-dimethylbenzyl)pyrimidine-5-carboxamide] |
| 8.24 | Cc1ncc(C(=O)NCc2cccc(C(F)(F)F)n2)c(C2CCN(C(=O)Cc3c(F)cccc3F)CC2)n1 [Compound A44, 4-(1-(2-(2,6-difluorophenyl)acetyl)piperidin-4-yl)-2-methyl-N-((6-(trifluoromethyl)pyridin-2-yl)methyl)pyrimidine-5-carboxamide] |
